{
  "source": "ChEMBL document CHEMBL4376887",
  "about": "“Rose Bengal-Amphiphilic Peptide Conjugate for Enhanced Photodynamic Therapy of Malignant Melanoma” (J Med Chem, 2020)",
  "key": {"B16-F10-luc2 [1]": {"system": "B16-F10-luc2", "assay": "Antitumor activity against mouse B16-F10-luc2 cells implanted in SCID mouse assessed as reduction in tumor growth at 100 uM, iv administered 30 mins prior to 68.4 J cm'-2 light irradiation for 3 mins on day 1, 2, 7, and 9 measured on day 13", "format": "functional, organism-based"}, "PANC-1 [2]": {"system": "PANC-1", "assay": "Cytotoxicity against human PANC1 cells assessed as reduction in cell viability up to 1 uM incubated for 24 hrs under dark condition by MTT assay", "format": "cell-based", "details": "panc-1, 24 h"}, "B16-F10-luc2 [3]": {"system": "B16-F10-luc2", "assay": "Antitumor activity against mouse B16-F10-luc2 cells implanted in SCID mouse assessed as tumor volume at 100 uM, iv administered 30 mins prior to 68.4 J cm'-2 light irradiation for 3 mins on day 1, 2, 7, and 9 measured for 12 days relative to control", "format": "functional"}, "B16-F10-luc2 [4]": {"system": "B16-F10-luc2", "assay": "Photo-activated cytotoxicity against mouse B16-F10-luc2 cells assessed as cell viability at 1 uM preincubated for 3 hrs followed by compound washout and subsequent 22.8 J cm'-2 light irradiation for 60 secs measured after 21 hrs by MTT assay relative to control", "format": "functional", "details": "B16-F10-luc2, light or radiation study, read-out: Activity"}, "MCF7 [5]": {"system": "MCF7", "assay": "Cytotoxicity against human MCF7 cells assessed as reduction in cell viability up to 1 uM incubated for 24 hrs under dark condition by MTT assay", "format": "cell-based", "details": "mcf7, 24 h"}, "[6]": {"assay": "Induction of ROS generation in ethanol assessed as reduction in DPBF absorbance at 410 nm at 1 uM preincubated for 10 mins followed by 342 J cm'-2 light irradiation for 15 mins and measured at 5 mins interval for 15 mins by spectrometric method", "format": "functional"}, "[7]": {"assay": "Induction of singlet oxygen generation in ethanol at 1 uM preincubated for 10 mins followed by 342 J cm'-2 light irradiation for 15 mins and measured at 5 mins interval for 15 mins by spectrometric method", "format": "functional"}, "[8]": {"assay": "Cytotoxicity against mouse B16-F10-luc2 cells assessed as cell viability at 1 uM incubated for 24 hrs under dark condition by MTT assay relative to control", "format": "cell-based", "details": "read-out: Activity"}, "PANC-1 [9]": {"system": "PANC-1", "assay": "Photo-activated cytotoxicity against human PANC1 cells assessed as reduction in cell viability up to 1 uM preincubated for 3 hrs followed by compound washout and subsequent 22.8 J cm'-2 light irradiation for 60 secs measured after 21 hrs by MTT assay", "format": "functional, cell-based"}, "[10]": {"assay": "Toxicity in mouse B16-F10-luc2 cells implanted SCID mouse assessed as effect on body weight at 100 uM, iv administered 30 mins prior to 68.4 J cm'-2 light irradiation for 3 mins on day 1, 2, 7, and 9", "format": "organism-based", "details": "in vivo, 0.05 h"}, "[11]": {"assay": "Drug uptake in mouse B16-F10-luc2 cells assessed as increase in fluorescence intensity at 10 uM measured after 3 hrs by confocal laser scanning microscopic analysis relative to RB", "format": "ADME, cell-based", "details": "b16-f10-luc2, 3 h"}, "HeLa [12]": {"system": "HeLa", "assay": "Photo-activated cytotoxicity against human HeLa cells assessed as reduction in cell viability preincubated for 3 hrs followed by compound washout and subsequent 22.8 J cm'-2 light irradiation for 60 secs measured after 21 hrs by MTT assay", "format": "functional, cell-based", "details": "light or radiation study"}, "B16-F10-luc2 [13]": {"system": "B16-F10-luc2", "assay": "Induction of reactive oxygen species generation in mouse B16-F10-luc2 cells at 10 uM preincubated for 3 hrs followed by compound washout prior to […] addition for 1 hr and subsequent 22.8 J cm'-2 light irradiation for 60 secs post media washout and measured immediately by fluorescence assay", "format": "functional, cell-based"}, "[14]": {"assay": "Acute toxicity in mouse B16-F10-luc2 cells implanted SCID mouse at 100 uM, iv administered 30 mins prior to 68.4 J cm'-2 light irradiation for 3 mins on day 1, 2, 7, and 9", "format": "organism-based", "details": "in vivo, 0.05 h"}, "B16-F10-luc2 [15]": {"system": "B16-F10-luc2", "assay": "(§1) Induction of apoptosis in mouse B16-F10-luc2 cells assessed as increase in necrotic cells at 1 uM preincubated for 3 hrs followed by compound washout and subsequent 22.8 J cm'-2 light irradiation for 60 secs measured after 21 hrs by Alexa Fluor 488 Annexin V/Dead Cell staining based flow cytometry", "format": "functional"}, "B16-F10-luc2 [16]": {"system": "B16-F10-luc2", "assay": "Induction of apoptosis in mouse B16-F10-luc2 cells assessed as decrease in viable cells at 1 uM preincubated for 3 hrs followed by compound washout and subsequent 22.8 J cm'-2 light irradiation for 60 secs measured after 21 hrs by Alexa Fluor 488 Annexin V/Dead Cell staining based flow cytometry", "format": "functional"}, "B16-F10-luc2 [17]": {"system": "B16-F10-luc2", "assay": "as §1, with “late apoptotic” for “necrotic”", "format": "functional"}, "MCF7 [18]": {"system": "MCF7", "assay": "Photo-activated cytotoxicity against human MCF7 cells assessed as reduction in cell viability up to 1 uM preincubated for 3 hrs followed by compound washout and subsequent 22.8 J cm'-2 light irradiation for 60 secs measured after 21 hrs by MTT assay", "format": "functional, cell-based"}, "B16-F10-luc2 [19]": {"system": "B16-F10-luc2", "assay": "Induction of apoptosis in mouse B16-F10-luc2 cells assessed as decrease in viable cells at 1 uM measured after 24 hrs by Alexa Fluor 488 Annexin V/Dead Cell staining based flow cytometry", "format": "functional"}, "B16-F10-luc2 [20]": {"system": "B16-F10-luc2", "assay": "Induction of apoptosis in mouse B16-F10-luc2 cells assessed as increase in necrotic cells at 1 uM measured after 24 hrs by Alexa Fluor 488 Annexin V/Dead Cell staining based flow cytometry", "format": "functional"}, "B16-F10-luc2 [21]": {"system": "B16-F10-luc2", "assay": "Antitumor activity against mouse B16-F10-luc2 cells implanted in SCID mouse assessed as tumor growth at 100 uM, iv administered 30 mins prior to 68.4 J cm'-2 light irradiation for 3 mins on day 1, 2, 7, and 9 measured for 12 days relative to control", "format": "functional"}, "B16-F10-luc2 [22]": {"system": "B16-F10-luc2", "assay": "Photo-activated cytotoxicity against mouse B16-F10-luc2 cells assessed as reduction in cell viability preincubated for 3 hrs followed by compound washout and subsequent 22.8 J cm'-2 light irradiation for 60 secs measured after 21 hrs by MTT assay", "format": "functional, cell-based", "details": "B16-F10-luc2, light or radiation study"}, "B16-F10-luc2 [23]": {"system": "B16-F10-luc2", "assay": "Antitumor activity against mouse B16-F10-luc2 cells implanted in SCID mouse assessed as tumor growth at 100 uM, iv administered on day 1, 2, 7, and 9 measured for 12 days relative to control", "format": "functional"}, "B16-F10-luc2 [24]": {"system": "B16-F10-luc2", "assay": "Induction of apoptosis in mouse B16-F10-luc2 cells assessed as increase in late apoptotic cells at 1 uM measured after 24 hrs by Alexa Fluor 488 Annexin V/Dead Cell staining based flow cytometry", "format": "functional"}, "HeLa [25]": {"system": "HeLa", "assay": "Photo-activated cytotoxicity against human HeLa cells assessed as reduction in cell viability preincubated for 4 hrs followed by compound washout and subsequent 3.3 mW cm'-2 light irradiation for 24 mins measured after 48 hrs by MTT assay", "format": "functional, cell-based", "details": "light or radiation study"}},
  "note": "Calls of active or inactive are those of the source. No cut-off for these calls is given here.",
  "data": [
    {"smiles": "O=C([O-])c1c(Cl)c(Cl)c(Cl)c(Cl)c1-c1c2cc(I)c(=O)c(I)c-2oc2c(I)c([O-])c(I)cc12.[Na+].[Na+]", "note": "[ROSE BENGAL SODIUM]", "values": [
      {"measurement": "Activity", "setting": "B16-F10-luc2 [1]", "result": "Active"},
      {"measurement": "Activity", "setting": "PANC-1 [2]", "result": "Active"},
      {"measurement": "Activity", "setting": "B16-F10-luc2 [3]", "result": 502, "unit": "%"},
      {"measurement": "viability at 1 µM", "setting": "B16-F10-luc2 [4]", "result": 69, "unit": "%"},
      {"measurement": "Activity", "setting": "MCF7 [5]", "result": "Active"},
      {"measurement": "Activity", "setting": "[6]", "result": "Active"}
    ]},
    {"smiles": "O=C(O)CCCCCCCOC(=O)c1c(Cl)c(Cl)c(Cl)c(Cl)c1-c1c2cc(I)c(=O)c(I)c-2oc2c(I)c(O)c(I)cc12", "values": [
      {"measurement": "viability at 1 µM", "setting": "B16-F10-luc2 [4]", "result": 62, "unit": "%"},
      {"measurement": "Activity", "setting": "[7]", "result": "Active"},
      {"measurement": "Activity", "setting": "[6]", "result": "Active"}
    ]},
    {"smiles": "C=Cc1c(C)c2cc3[nH]c(cc4nc(cc5nc(cc1[nH]2)C(C)=C5CCC(=O)N[C@@H](CS)C(=O)N[C@@H](CCCCN)C(=O)N[C@@H](CC(C)C)C(=O)N[C@@H](C)C(=O)N[C@@H](CCCCN)C(=O)N[C@@H](CC(C)C)C(=O)N[C@@H](C)C(=O)N[C@@H](CCCCN)C(=O)N[C@@H](CCCCN)C(=O)N[C@@H](CC(C)C)C(=O)N[C@@H](C)C(=O)N[C@@H](CCCCN)C(=O)N[C@@H](CC(C)C)C(=O)N[C@@H](C)C(=O)N[C@@H](CCCCN)C(N)=O)C(CCC(=O)O)=C4C)c(C)c3C=C", "values": [
      {"measurement": "viability at 24 h, 1 µM", "setting": "[8]", "result": 46, "unit": "%"},
      {"measurement": "viability at 1 µM", "setting": "B16-F10-luc2 [4]", "result": 38, "unit": "%"}
    ]},
    {"smiles": "CC(C)C[C@H](NC(=O)[C@H](CCCCN)NC(=O)[C@H](C)NC(=O)[C@H](CC(C)C)NC(=O)[C@H](CCCCN)NC(=O)[C@H](CCCCN)NC(=O)[C@H](C)NC(=O)[C@H](CC(C)C)NC(=O)[C@H](CCCCN)NC(=O)[C@H](C)NC(=O)[C@H](CC(C)C)NC(=O)[C@H](CCCCN)NC(=O)[C@H](CS)NC(=O)CCCCCCCOC(=O)c1c(Cl)c(Cl)c(Cl)c(Cl)c1-c1c2cc(I)c(=O)c(I)c-2oc2c(I)c(O)c(I)cc12)C(=O)N[C@@H](C)C(=O)N[C@@H](CCCCN)C(N)=O", "values": [
      {"measurement": "Activity", "setting": "B16-F10-luc2 [1]", "result": "Active"},
      {"measurement": "Activity", "setting": "PANC-1 [9]", "result": "Active"},
      {"measurement": "Activity", "setting": "[10]", "result": "Non-Toxic"},
      {"measurement": "Activity", "setting": "PANC-1 [2]", "result": "Active"},
      {"measurement": "Drug uptake", "setting": "[11]", "result": 69, "unit": "%"},
      {"measurement": "IC50", "setting": "HeLa [12]", "result": 290, "unit": "nM"},
      {"measurement": "Activity", "setting": "B16-F10-luc2 [13]", "result": "Active"},
      {"measurement": "Activity", "setting": "[14]", "result": "Non-Toxic"},
      {"measurement": "Activity", "setting": "B16-F10-luc2 [15]", "result": "Active"},
      {"measurement": "viability at 24 h, 1 µM", "setting": "[8]", "result": 69, "unit": "%"},
      {"measurement": "Activity", "setting": "B16-F10-luc2 [16]", "result": "Active"},
      {"measurement": "viability at 1 µM", "setting": "B16-F10-luc2 [4]", "result": 6, "unit": "%"},
      {"measurement": "Activity", "setting": "B16-F10-luc2 [17]", "result": "Active"},
      {"measurement": "Activity", "setting": "MCF7 [5]", "result": "Active"},
      {"measurement": "Activity", "setting": "[7]", "result": "Active"},
      {"measurement": "Activity", "setting": "MCF7 [18]", "result": "Active"},
      {"measurement": "Activity", "setting": "B16-F10-luc2 [19]", "result": "Active"},
      {"measurement": "Activity", "setting": "[6]", "result": "Active"},
      {"measurement": "Activity", "setting": "B16-F10-luc2 [20]", "result": "Active"},
      {"measurement": "Activity", "setting": "B16-F10-luc2 [21]", "result": 23, "unit": "%"},
      {"measurement": "IC50", "setting": "B16-F10-luc2 [22]", "result": 310, "unit": "nM"},
      {"measurement": "Activity", "setting": "B16-F10-luc2 [23]", "result": 573, "unit": "%"},
      {"measurement": "Activity", "setting": "B16-F10-luc2 [24]", "result": "Active"}
    ]},
    {"smiles": "C=Cc1c(C)c2cc3[nH]c(cc4nc(cc5nc(cc1[nH]2)C(C)=C5CCC(=O)O)C(CCC(=O)O)=C4C)c(C)c3C=C", "values": [
      {"measurement": "IC50", "setting": "HeLa [25]", "result": 1610, "unit": "nM"}
    ]}
  ]
}
